Data reported in PubChem BioAssay (NCI).
Values joined by “and” are separate entries in the source; they are usually repeats but may differ in a detail not shown here. Equal values may be shown once.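 Cells were grown in 96-well plates and exposed to each compound for 48 hours at five concentrations; endpoints were interpolated linearly between bracketing concentrations, or set to the highest concentration if not reached. GI50 is the concentration that inhibits growth by half. At the TGI there is no net growth.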

How the values were obtained:
Assay in all cases: inhibition of tumour cell growth, NCI panel, 48 h
PC-3 prostate = system: PC-3 prostate
MALME-3M melanoma = system: MALME-3M melanoma
HCT-15 colon = system: HCT-15 colon
UO-31 renal = system: UO-31 renal
MDA-MB-231 breast = system: MDA-MB-231 breast
MDA-MB-435 = system: MDA-MB-435
OVCAR-8 ovarian = system: OVCAR-8 ovarian
U251 CNS = system: U251 CNS
SK-MEL-5 melanoma = system: SK-MEL-5 melanoma
UACC-62 melanoma = system: UACC-62 melanoma

Row | Structure (SMILES) | GI50 (PC-3 prostate) [µM] | TGI (PC-3 prostate) [µM] | GI50 (MALME-3M melanoma) [µM] | TGI (MALME-3M melanoma) [µM] | GI50 (HCT-15 colon) [µM] | TGI (HCT-15 colon) [µM] | GI50 (UO-31 renal) [µM] | TGI (UO-31 renal) [µM] | GI50 (MDA-MB-231 breast) [µM] | TGI (MDA-MB-231 breast) [µM] | GI50 (MDA-MB-435) [µM] | TGI (MDA-MB-435) [µM] | GI50 (OVCAR-8 ovarian) [µM] | TGI (OVCAR-8 ovarian) [µM] | GI50 (U251 CNS) [µM] | TGI (U251 CNS) [µM] | GI50 (SK-MEL-5 melanoma) [µM] | TGI (SK-MEL-5 melanoma) [µM] | GI50 (UACC-62 melanoma) | TGI (UACC-62 melanoma) [µM]
1 | COc1ccc2c(c1)[n+](=O)c(C(=O)/C=C/c1cc(OC)c(OC)c(OC)c1)c(C)n2[O-] | 27.3 | > 100 | 19.1 | 58.7 | 29.1 | > 100 | 28 | 78.6 | 13.5 | 35.2 | > 100 | > 100 | 6.03 | 30.3 | 9.87 | 22.4 | 40.4 | > 100 | 17.2 µM | 37.3
2 | C#CCOc1cccc(Nc2ncnc3ccc(NC(=O)CCl)cc23)c1 | 0.581 | 12.4 | 3.46 | 8.63 | 0.0709 | 15.1 | 0.312 | 7.11 | 1.07 | 30.8 | 1.4 | 20.2 | 0.353 | > 65 | 0.364 | 8.23 | 3.37 | 8.9 | 1.65 µM | 20.3
3 | CCCCCC/C=C\CCCCCCCCCC1=CC(=O)C=C(OC)C1=O | – | 11 | – | 29.4 | – | 11.1 | – | 14 | – | 18.4 | – | 13.8 | – | 12.5 | – | 13.6 | – | 5.54 | – | 16.9
4 | CCCCn1sc(=O)n(Cc2ccc(CNC(=O)OCc3ccc4c(Br)cc(Br)c(O)c4n3)cc2)c1=O | 0.651 | > 100 | 0.831 | > 100 | 0.468 | > 100 | 1.05 | > 100 | 0.475 | > 51.1 | 0.257 | 0.731 | 0.415 | > 81.4 | 0.659 | > 100 | 0.55 | 2.07 | 0.916 µM | > 100
5 | N[C@@H]1CCCN(c2c(/C=C3\SC(=O)NC3=O)cccc2-c2ccccc2)C1 | 10.2 | 25.2 | 7.52 | 24.5 | 13.7 | 29.5 | 12.7 | 27.3 | 7.77 | 23.1 | 11.4 | 24.3 | 14 | 27.9 | 3.3 | 15.3 | 11.2 | 23.6 | 13.7 µM | 27.3
6 | O=C1c2c(O)cc(O)cc2OC(c2ccc(O)cc2O)C1O (configuration not stated) | – | > 100 | > 100 | > 100 | > 100 | > 100 | > 100 | > 100 | – | > 100 | – | > 100 | > 100 | > 100 | > 100 | > 100 | > 100 | > 100 | > 100 µM | > 100
7 | COc1ccc(C(=O)/C=C/c2ccc(OCC(=O)N3CCN(c4ccccc4)CC3)cc2)cc1 | – | > 100 | – | > 100 | – | > 100 | – | > 94.7 | – | > 53.2 | – | > 100 | – | > 100 | – | > 83.5 | – | > 85.1 | – | > 100
8 | Cn1c(=S)c2[nH]c(SCCN3CCCC3)nc2n(C)c1=O | – | > 100 | – | > 100 | – | > 100 | – | > 100 | – | > 100 | – | > 100 | – | > 100 | – | > 100 | – | > 100 | – | > 100
9 | C/C(Cc1ccc(Cl)cc1)=C(/c1ccc(Cl)cc1)c1ccc(OCCN(C)C)cc1 | 4.34 | 9.21 | 3.68 | 8.63 | 1.19 | 4.27 | 4.27 | 8.65 | 4.27 | 8.71 | 4.52 | 8.81 | 5.75 | 13.7 | 3.72 | 8.6 | 4.4 | 8.78 | 5.19 µM | 9.75
10 | O=C1C(Cl)=C(Nc2cccc(O)c2)C(=O)N1c1ccccc1Cl | 10.7 | 31.2 | 10.9 | 69.1 | 35.2 | > 100 | 32.5 | > 100 | 5.68 | 42.4 | 37.2 | > 100 | 32.1 | > 100 | 33.3 | > 100 | 18.8 | 65.6 | 19.6 µM | 62.3
11 | Nc1nc(N)c2nc(CNc3ccc(C(=O)NC(CCCNC(=O)c4ccccc4C(=O)O)C(=O)O)cc3)cnc2n1 (configuration not stated) | – | > 100 | – | > 100 | 0.00105 | > 100 | 0.00532 | > 100 | – | > 100 | – | > 100 | 0.0015 | > 100 | – | > 100 | 0.00577 | > 100 | < 0.01 µM and 0.00129 µM | > 100
12 | O=C1CCc2c(sc3[nH]c(=S)n(Cc4ccccc4)c(=O)c23)C1 | 0.616 | > 100 | 4.53 | > 100 | 2.78 | 13.8 | 2.62 | 9.7 | 4.54 | > 100 | 3.43 | > 100 | 3.19 | > 100 | 2.14 | > 100 | 1.86 | 3.74 | 2.54 µM | 13.2
